Consider eleven molecules from ChEMBL document CHEMBL1131148, “Synthesis and modeling studies of a potent conformationally rigid muscarinic agonist: 1-azabicyclo[2.2.1]heptanespirofuranone” (J Med Chem, 1998).

The species entered for test [1] is Rattus norvegicus. Description: Stimulation of phosphatidyl inositol(PI) hydrolysis as compared to that of carbachol, was determined in rat hippocampal slices. In kind it is functional, Hippocampus.
In test [2] the target is Muscarinic acetylcholine receptor. Put plainly: Binding affinity against Muscarinic acetylcholine receptor using [3H]-OXO-M as the radioligand. In kind it is protein assay, Rattus norvegicus.

For orientation: Ki means a measure of affinity in units of concentration, obtained from inhibition or displacement. Low values mean higher affinity, high ones lower affinity.

With `C[C@H]1OCC2(CN3CCC2C3)O1` (stereo not given in full), the Intrinsic activity in test [1] is reported as 75%. Also, in test [2], the Ki came to 14 nM. Taken in the same sequence, the figures for `CCC[C@H]1O[C@@]2(CC1=O)CN1CCC2C1` (stereo not given in full) were 0% and 2 nM. Taken in the same sequence, the figures for `CC[C@H]1O[C@@]2(CC1=O)CN1CCC2C1` (stereo not given in full) were 39% and 3.7 nM. With `CC[C@@H]1O[C@@]2(CC1=O)CN1CCC2C1` (stereo not given in full), in test [1], the Intrinsic activity was determined as 47%. This molecule registered a Ki in test [2] of 0.4 nM. Taken in the same sequence, the figures for `CN1O[C@@]2(CC1=O)CN1CCC2C1` (stereo not given in full) were 22.6% and 4 nM.

Take `C[C@@H]1O[C@@]2(CC1=O)CN1CCC2C1` (stereo not given in full): the Intrinsic activity in test [1] is 81%. The Ki in test [2] was determined as 0.8 nM. In the case of `CCC[C@@H]1O[C@@]2(CC1=O)CN1CCC2C1` (stereo not given in full), the Intrinsic activity in test [1] was 0%. Besides, the inhibition constant (Ki) in test [2] was found to be 2 nM. Take `CC1OC2(CCN(C)CC2)CC1=O` (stereo not given): the Intrinsic activity in test [1] is 51%. The molecule further returned a Ki in test [2] of 6.7 nM. Take `CC1O[C@@]2(CC1=O)CN1CCC2CC1` (stereo not given in full): the Intrinsic activity in test [1] is 9%. On to `Cc1noc(C2CN3CCC2C3)n1` (stereo not given), for which the Intrinsic activity in test [1] stood at 106%. This molecule also registered a Ki in test [2] of 0.2 nM. As to `C[N+](C)(C)CCOC(N)=O.[Cl-]` [CARBACHOL], in test [1], the Intrinsic activity amounted to 100%.
